This note sets out measurements from paper PMC9060465 (Proceedings of the National Academy of Sciences of the …, 2022).

One assay has as its target T1, human GIPR (Homo sapiens, UniProt P48546).
T1 construct: expressed in transfected cells; host or cells: HEK293
T1 sequence (P48546 22-466): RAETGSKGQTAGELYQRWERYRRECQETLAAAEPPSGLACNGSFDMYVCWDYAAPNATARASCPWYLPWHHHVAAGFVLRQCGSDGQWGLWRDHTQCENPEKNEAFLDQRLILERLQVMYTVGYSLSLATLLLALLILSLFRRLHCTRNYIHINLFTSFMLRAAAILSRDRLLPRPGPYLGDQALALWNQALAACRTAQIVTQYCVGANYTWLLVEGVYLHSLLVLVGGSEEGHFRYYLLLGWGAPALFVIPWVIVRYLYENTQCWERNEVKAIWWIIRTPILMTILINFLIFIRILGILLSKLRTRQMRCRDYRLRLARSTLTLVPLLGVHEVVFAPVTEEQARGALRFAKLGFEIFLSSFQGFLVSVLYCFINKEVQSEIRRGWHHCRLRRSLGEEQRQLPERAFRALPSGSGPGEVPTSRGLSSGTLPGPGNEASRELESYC
Briefly: GIPR low density cAMP accumulation in HEK293 cells. The format is cell-based. The protocol: Fig. 4. […] (B) Ligand-induced GTPγS binding of Gαs was performed using the GIPR-expressing membranes. […] (C) Agonist-stimulated cAMP production was measured in human GIPR expressing HEK293 cells. […] (E) Ligand-induced GTPγS binding of Gαs was performed using the GLP-1R-expressing membranes. […] (F) Agonist-stimulated cAMP production was measured in human GLP-1R-expressing HEK293 cells. […] Data presented are representative of n ≥ 3 independent experiments. Summarized data are shown in SI Appendix, Table 2. log M; log Molar.
We note that the albumin-binding propensity of fatty acid-modified peptides can confound a pharmacological comparison of molecules, given the common use of albumin and serum as nonspecific blocking agents in biological assays. Therefore, to obviate this, entirely albumin-free assays supplemented with bovine casein or bacitracin were used to prevent nonspecific binding ([10]).
Functional potency (EC50)
and efficacy (% Top) of ligands to induce Gα s -GTPγS binding and cAMP accumulation in HEK293 cells expressing GIPR were determined. The equilibrium affinity (KD) of
ligands for the immobilized ectodomain of the GIPR were quantified by surface plasmon resonance. […]
SPR data were analyzed using T200 evaluation software (Cytiva). All data are presented as geometric means with SEM and n values
according to established practices. ND, not determined. NA, not applicable.
On the technique in general: Changes in cAMP serve as a functional read-out for many G protein-coupled receptors.

The target of assay [1] is T2, ECD of human GIPR (amino acids 26 to 138) (Homo sapiens, UniProt P48546).
T2 construct: human GIPR (amino acids 26 to 138); 6His; made in house; host or cells: CHO cells
T2 sequence (P48546 26-138): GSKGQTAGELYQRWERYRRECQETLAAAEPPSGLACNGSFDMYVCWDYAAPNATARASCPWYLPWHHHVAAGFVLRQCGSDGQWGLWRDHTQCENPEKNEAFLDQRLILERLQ
The assay is described as follows: GIPR extracellular domain binding by surface plasmon resonance. The conditions noted are these: equilibrium affinity, immobilized GIPR ectodomain, Biacore T200, HBS-EP pH 7.6; (SEM, n); read-out: GIPR SPR KD. From the text: DNA encoding each protein was transfected into CHO cells for expression. After expression, the proteins were purified by affinity chromatography (HIS-Trap Ni, Cytiva) followed by size exclusion chromatography using a HiLoad 26/600 Superdex 75pg column (Cytiva) with PBS buffer. […] Surface plasmon resonance measurements were made using a Biacore T200 (Cytiva) and analyzed using T200 Evaluation Software Version 3.1. Receptor ectodomain proteins were covalently immobilized (∼250 resonance units) on Sensor Chip CM4 BR100534 using the Amine coupling Immobilization Wizard in the Biacore T200 Control Software Version 2.0.2. […]
(§1) and efficacy (% Top) of ligands to induce Gα s -GTPγS binding and cAMP accumulation in HEK293 cells expressing GIPR were determined. The equilibrium affinity (KD) of ligands for the immobilized ectodomain of the GIPR were quantified by surface plasmon resonance. […]
(§2) Functional potency (EC50) and efficacy (% Top) of ligands to induce Gα s-GTPγS binding and cAMP accumulation in HEK293 cells expressing GLP-1R were determined. The equilibrium affinity (KD) of ligands for the immobilized ectodomain of the GLP-1R were quantified by surface plasmon resonance. […]
(§3) recruitment to the GLP-1R were determined using the NanoBRET approach. The potency (EC50) and efficacy (% Top) for ligands to induce GLP-1R Internalization were determined using diffusion-enhanced resonance energy transfer. […]

Assay [2] addresses T3, ECD of human GLP-1R (amino acids 24 to 145) (Homo sapiens, UniProt P43220).
T3 construct: GLP-1R (amino acids 24 to 145); 6His; made in house; host or cells: CHO cells
Briefly: GLP-1R extracellular domain binding by surface plasmon resonance.
From the text: DNA encoding each protein was transfected into CHO cells for expression. After expression, the proteins were purified by affinity chromatography (HIS-Trap Ni, Cytiva) followed by size exclusion chromatography using a HiLoad 26/600 Superdex 75pg column (Cytiva) with PBS buffer. […] Surface plasmon resonance measurements were made using a Biacore T200 (Cytiva) and analyzed using T200 Evaluation Software Version 3.1. Receptor ectodomain proteins were covalently immobilized (∼250 resonance units) on Sensor Chip CM4 BR100534 using the Amine coupling Immobilization Wizard in the Biacore T200 Control Software Version 2.0.2. Running buffer was HBS-EP (10 mM Hepes, 150 mM NaCl, 3 mM EDTA, 0.05% P20 [pH 7.6]; Teknova). Concentration series for each sample were made by serial dilution in running buffer. The samples were injected for 150 sec at a 30-µL/min flow rate, followed by 300 sec of dissociation. The surface was regenerated between samples with 10 mM glycine (pH 1.7).
Fig. S10. Receptor extracellular domain (ECD) binding affinity of peptides. Purified GIPR (left column) and GLP-1R (right column) extracellular domains were immobilized to biosensor […]
mM). […]
as §1, §2, §3
relative efficacy for NanoBRET assays. SPR data were analyzed using T200 evaluation software (Cytiva). […] ND, not determined. […]

The target of a further assay is GLP-1R (Homo sapiens, UniProt P43220). The assay is described as follows: β-arrestin 1 recruitment to the GLP-1R, NanoBRET. It counts as cell-based. Also on record: expressed in transfected cells. The protocol:
Functional potency (EC50) […]
and efficacy (% Top) of ligands to induce Gα s -GTPγS binding and cAMP accumulation in HEK293 cells expressing GIPR were determined. The equilibrium affinity (KD) of ligands for the immobilized ectodomain of the GIPR were quantified by surface plasmon resonance. Middle Panel: The affinity (Ki) of ligands for the GLP-1R was […]
as §2, §3
relative efficacy for NanoBRET assays. SPR data were analyzed using T200 evaluation software (Cytiva). All data are presented as geometric means with SEM and n values according to established practices. ND, not determined. NA, not applicable.
Background: Arrestin recruitment assays detect the binding of arrestin to an activated receptor.

SMILES strings stand for the structures.

GLP-1R, sequence (P43220 24-463): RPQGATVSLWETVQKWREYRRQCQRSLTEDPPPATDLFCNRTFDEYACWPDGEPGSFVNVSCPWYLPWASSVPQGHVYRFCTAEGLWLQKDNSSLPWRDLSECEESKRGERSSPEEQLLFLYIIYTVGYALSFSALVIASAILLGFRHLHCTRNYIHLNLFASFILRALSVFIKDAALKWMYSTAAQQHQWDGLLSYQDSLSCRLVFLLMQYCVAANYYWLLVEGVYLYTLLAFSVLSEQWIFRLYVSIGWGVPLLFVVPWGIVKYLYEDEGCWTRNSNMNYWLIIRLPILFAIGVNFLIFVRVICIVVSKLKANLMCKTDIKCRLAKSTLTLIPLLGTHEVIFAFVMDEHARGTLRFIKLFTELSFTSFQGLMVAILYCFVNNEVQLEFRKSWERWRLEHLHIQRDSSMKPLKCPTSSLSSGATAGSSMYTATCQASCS
GLP-1R, sequence (P49407 whole entry partner): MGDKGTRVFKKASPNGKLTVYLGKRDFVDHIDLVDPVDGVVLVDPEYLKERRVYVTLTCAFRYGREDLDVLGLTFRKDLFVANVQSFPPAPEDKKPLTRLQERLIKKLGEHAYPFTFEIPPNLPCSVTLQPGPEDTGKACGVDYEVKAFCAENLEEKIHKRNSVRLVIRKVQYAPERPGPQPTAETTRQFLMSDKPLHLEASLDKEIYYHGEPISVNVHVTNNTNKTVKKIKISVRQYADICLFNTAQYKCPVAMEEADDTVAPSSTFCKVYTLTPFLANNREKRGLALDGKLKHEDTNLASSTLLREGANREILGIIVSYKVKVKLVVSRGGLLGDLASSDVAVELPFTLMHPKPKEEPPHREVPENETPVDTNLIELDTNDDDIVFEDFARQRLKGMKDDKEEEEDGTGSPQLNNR
T3 sequence (P43220 24-145): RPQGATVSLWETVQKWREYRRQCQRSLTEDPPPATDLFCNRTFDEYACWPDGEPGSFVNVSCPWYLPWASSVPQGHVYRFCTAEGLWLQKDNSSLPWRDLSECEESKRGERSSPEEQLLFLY

The term EC50 denotes the concentration that produces a half-maximal response. As a reminder, the Kd is the constant that tells how readily two partners part at equilibrium. Broadly, the koff is a measure of how fast the partners let go of each other. With `CC[C@H](C)[C@H](NC(=O)[C@H](CC(C)C)NC(=O)[C@H](Cc1c[nH]c2ccccc12)NC(=O)[C@H](CCC(N)=O)NC(=O)[C@@H](NC(=O)[C@H](Cc1ccccc1)NC(=O)[C@H](C)NC(=O)[C@H](CCCCN)NC(=O)[C@H](CCC(N)=O)NC(=O)[C@H](C)NC(=O)[C@@H](NC(=O)[C@H](CCCCN)NC(=O)[C@H](CC(=O)O)NC(=O)[C@H](CC(C)C)NC(=O)C(C)(C)NC(=O)[C@@H](NC(=O)[C@H](CO)NC(=O)[C@H](Cc1ccc(O)cc1)NC(=O)[C@H](CC(=O)O)NC(=O)[C@H](CO)NC(=O)[C@@H](NC(=O)[C@H](Cc1ccccc1)NC(=O)[C@@H](NC(=O)CNC(=O)[C@H](CCC(=O)O)NC(=O)C(C)(C)NC(=O)[C@@H](N)Cc1ccc(O)cc1)[C@@H](C)O)[C@@H](C)O)[C@@H](C)CC)[C@@H](C)CC)C(C)C)C(=O)N[C@@H](C)C(=O)NCC(=O)NCC(=O)N1CCC[C@H]1C(=O)N[C@@H](CO)C(=O)N[C@@H](CO)C(=O)NCC(=O)N[C@@H](C)C(=O)N1CCC[C@H]1C(=O)N1CCC[C@H]1C(=O)N1CCC[C@H]1C(=O)N[C@@H](CO)C(N)=O` [Tzp∆C20], the EC50 amounted to 0.0163 nM on human GIPR (cAMP accumulation, HEK293 cells expressing GIPR, albumin-free, geometric mean (SEM, n)) and 3.99 nM on GLP-1R (NanoBRET, geometric mean (SEM, n), read-out: GLP-1R β-Arr1 Recruitment EC50). Further, at human GIPR (efficacy (% Top), normalized to GIP(1-42), (SEM)), the “GIPR Low Density cAMP Top” value was 107 (4) %. For the same compound, the Kd in assay [1] came out at 1690 nM; in assay [2] (GLP-1R SPR KD, equilibrium affinity, immobilized GLP-1R ectodomain, Biacore T200, HBS-EP pH 7.6, (SEM, n)), 111 nM. The koff in assay [2] (read-out: GLP-1R ECD kinetic constant Koff) came to 0.0254 s⁻¹. Moreover, at GLP-1R (efficacy (% Top), relative efficacy to GLP-1, (SEM)), the “GLP-1R β-Arr1 Recruitment Top” value is listed as 25.9 (2.6) %.
